Experimental data published in patent publication US8399480B2, “Hydroxymethyl pyrrolidines as beta 3 adrenergic receptor agonists” (Merck Sharp & Dohme Corp., priority 2008, dated 2013).

Target: T1, human β3 adrenergic receptor (Homo sapiens, UniProt P13945)
T1 construct: expressed in transfected cells; host or cells: Chinese hamster ovary (CHO) cells, stably transfected
Assay: Functional assay: cAMP production (LANCE TR-FRET) in CHO cells stably transfected with cloned β3 adrenergic receptor
Assay type: cell-based
Conditions: Table 4; human β3 functional activity; read-out: Human β Binding
In short: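 Agonist-stimulated cAMP in CHO cells stably expressing human β3 receptor, 6,000 cells per well in HBSS/HEPES/0.1% BSA with 0.6 mM IBMX, 30 min at room temperature. LANCE TR-FRET readout converted to cAMP via standard curve; maximal stimulation defined with isoproterenol.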

T1 sequence (P13945 whole entry): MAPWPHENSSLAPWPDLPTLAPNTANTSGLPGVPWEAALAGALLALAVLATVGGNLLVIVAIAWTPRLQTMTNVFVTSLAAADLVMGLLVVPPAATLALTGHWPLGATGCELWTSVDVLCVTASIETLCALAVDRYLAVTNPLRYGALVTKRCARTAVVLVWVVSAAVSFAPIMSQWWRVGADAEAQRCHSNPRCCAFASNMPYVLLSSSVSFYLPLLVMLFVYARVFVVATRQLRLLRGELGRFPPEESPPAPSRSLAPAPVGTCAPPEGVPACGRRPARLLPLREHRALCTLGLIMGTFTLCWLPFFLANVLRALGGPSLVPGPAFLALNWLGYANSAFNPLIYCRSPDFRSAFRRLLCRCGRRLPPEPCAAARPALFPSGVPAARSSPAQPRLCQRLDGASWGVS

Compound	EC50 [nM]
O=C(Cn1c(=O)[nH]c(=O)c2ccccc21)Nc1ccc(C[C@@H]2CC[C@H]([C@H](O)c3ccccc3)N2)cc1 [Example 57]	1 to 10
Cc1nnc(CC(=O)Nc2ccc(C[C@@H]3CC[C@H]([C@H](O)c4ccccc4)N3)cc2)[nH]1 [Example 21]	11 to 100
Cc1nc(C)c(CC(=O)Nc2ccc(C[C@@H]3CC[C@H]([C@H](O)c4ccccc4)N3)cc2)s1 [Example 10]	1 to 10
O=C(Cc1cnccn1)Nc1ccc(C[C@@H]2CC[C@H]([C@H](O)c3ccccc3)N2)cc1 [Example 94]	1 to 10
O=C(Cc1nnc(-c2ccccc2)[nH]1)Nc1ccc(C[C@@H]2CC[C@H]([C@H](O)c3ccccc3)N2)cc1 [Example 22]	< 1
O=C(Cn1ccc2ncccc2c1=O)Nc1ccc(C[C@@H]2CC[C@H]([C@H](O)c3ccccc3)N2)cc1 [Example 62]	1 to 10
O=C(Cn1nnc2ccccc2c1=O)Nc1ccc(C[C@@H]2CC[C@H]([C@H](O)c3ccccc3)N2)cc1 [Example 59]	1 to 10
Cc1nn(CC(=O)Nc2ccc(C[C@@H]3CC[C@H]([C@H](O)c4ccccc4)N3)cc2)c(=O)c2ccccc12 [Example 15]	1 to 10
O=C(CN1CCCOC1=O)Nc1ccc(C[C@@H]2CC[C@H]([C@H](O)c3ccccc3)N2)cc1 [Example 98]	1 to 10
Cn1ncc2c(=O)n(CC(=O)Nc3ccc(C[C@@H]4CC[C@H]([C@H](O)c5ccccc5)N4)cc3)cnc21 [Example 60]	1 to 10
O=C(Cc1ccccc1F)Nc1ccc(C[C@@H]2CC[C@H]([C@H](O)c3ccccc3)N2)cc1 [Example 70]	11 to 100
O=C(Cc1nnc(-c2cscn2)[nH]1)Nc1ccc(C[C@@H]2CC[C@H]([C@H](O)c3ccccc3)N2)cc1 [Example 24]	1 to 10

Continued, values first:

EC50 [nM]	Compound
11 to 100	O=C(Nc1ccc(C[C@@H]2CC[C@H]([C@H](O)c3ccccc3)N2)cc1)c1ccccc1CCn1cccc1 [Example 32]
11 to 100	O=C(Cc1ccccn1)Nc1ccc(C[C@@H]2CC[C@H]([C@H](O)c3ccccc3)N2)cc1 [Example 43]
1 to 10	O=C(Cc1c(F)cccc1F)Nc1ccc(C[C@@H]2CC[C@H]([C@H](O)c3ccccc3)N2)cc1 [Example 71]
101 to 1000	O=C(Nc1ccc(C[C@@H]2CC[C@H]([C@H](O)c3ccccc3)N2)cc1)C1CCCN1c1ccc(Cl)cc1 (some centres unmarked) [Example 37]
11 to 100	O=C(Cc1nnc(Cc2ccccc2)[nH]1)Nc1ccc(C[C@@H]2CC[C@H]([C@H](O)c3ccccc3)N2)cc1 [Example 33]
11 to 100	O=C(Cc1nnc[nH]1)Nc1ccc(C[C@@H]2CC[C@H]([C@H](O)c3ccccc3)N2)cc1 [Example 73]
1 to 10	O=C(Cn1ccc(=O)[nH]c1=O)Nc1ccc(C[C@@H]2CC[C@H]([C@H](O)c3ccccc3)N2)cc1 [Example 63]
11 to 100	O=C(Cn1cnnn1)Nc1ccc(C[C@@H]2CC[C@H]([C@H](O)c3ccccc3)N2)cc1 [Example 77]

Same assay, conditions: Table 5; read-out: Human β3 Functional

Compound	EC50 [nM]
O=C(Nc1ccc(C[C@@H]2CC[C@H]([C@H](O)c3ccccc3)N2)cc1)C1CCc2sc(F)nc21 (single isomer, unassigned) [Example 146]	< 1
CC(C(=O)Nc1ccc(C[C@@H]2CC[C@H]([C@H](O)c3ccccc3)N2)cc1)n1cnnn1 (single isomer, unassigned) [Example 173]	1 to 10
CC(C(=O)Nc1ccc(C[C@@H]2CC[C@H]([C@H](O)c3ccccc3)N2)cc1)c1ccccn1 (single isomer, unassigned) [Example 204]	1 to 10
Cc1n[nH]c2c1CCC2C(=O)Nc1ccc(C[C@@H]2CC[C@H]([C@H](O)c3ccccc3)N2)cc1 (single isomer, unassigned) [Example 138]	11 to 100
Nc1nc2c(s1)CCCC2C(=O)Nc1ccc(C[C@@H]2CC[C@H]([C@H](O)c3ccccc3)N2)cc1 (single isomer, unassigned) [Example 116]	1 to 10
O=C(Nc1ccc(C[C@@H]2CC[C@H]([C@H](O)c3ccccc3)N2)cc1)C1CCCn2nnnc21 (single isomer, unassigned) [Example 153]	11 to 100
CC(C(=O)Nc1ccc(C[C@@H]2CC[C@H]([C@H](O)c3ccccc3)N2)cc1)N1CCOC1=O (single isomer, unassigned) [Example 208]	1 to 10
COCCC(C(=O)Nc1ccc(C[C@@H]2CC[C@H]([C@H](O)c3ccccc3)N2)cc1)n1cccn1 (single isomer, unassigned) [Example 224]	11 to 100
O=C(Nc1ccc(C[C@@H]2CC[C@H]([C@H](O)c3ccccc3)N2)cc1)C1CCc2ccc(=O)[nH]c21 (single isomer, unassigned) [Example 134]	101 to 1000
O=C(Nc1ccc(C[C@@H]2CC[C@H]([C@H](O)c3ccccc3)N2)cc1)C1CCc2ncnn21 (single isomer, unassigned) [Example 128]	11 to 100
Cc1nnc2n1CCCC2C(=O)Nc1ccc(C[C@@H]2CC[C@H]([C@H](O)c3ccccc3)N2)cc1 (single isomer, unassigned) [Example 150]	1 to 10

Second part, the compound after the results:

EC50 [nM]	Compound
1 to 10	Cc1nc2c(s1)CCCC2C(=O)Nc1ccc(C[C@@H]2CC[C@H]([C@H](O)c3ccccc3)N2)cc1 (single isomer, unassigned) [Example 121]
1 to 10	CC(C(=O)Nc1ccc(C[C@@H]2CC[C@H]([C@H](O)c3ccccc3)N2)cc1)n1nccn1 (single isomer, unassigned) [Example 179]
1 to 10	Cc1nnc2n1CCCC2C(=O)Nc1ccc(C[C@@H]2CC[C@H]([C@H](O)c3ccccc3)N2)cc1 (single isomer, unassigned) [Example 151]
< 1	C[C@H](C(=O)Nc1ccc(C[C@@H]2CC[C@H]([C@H](O)c3ccccc3)N2)cc1)c1csc(N)n1 [Example 105]
11 to 100	O=C(Nc1ccc(C[C@@H]2CC[C@H]([C@H](O)c3ccccc3)N2)cc1)C1CCCn2nnnc21 (single isomer, unassigned) [Example 152]
< 1	CC(C(=O)Nc1ccc(C[C@@H]2CC[C@H]([C@H](O)c3ccccc3)N2)cc1)n1cnc2ccccc2c1=O (single isomer, unassigned) [Example 167]
101 to 1000	O=C(Nc1ccc(C[C@@H]2CC[C@H]([C@H](O)c3ccccc3)N2)cc1)C1CCCn2ccnc21 (single isomer, unassigned) [Example 155]

Same assay, conditions: Table 7; β3AR-cAMP; read-out: Human β3 Functional

Compound	EC50 [nM]
Cc1nccc(-c2cccc(S(=O)(=O)Nc3ccc(C[C@@H]4CC[C@H]([C@H](O)c5ccccc5)N4)cc3)c2)n1 [Example 243]	101 to 1000
Cn1cnc(S(=O)(=O)Nc2ccc(C[C@@H]3CC[C@H]([C@H](O)c4ccccc4)N3)cc2)c1 [Example 246]	101 to 1000
O=S(=O)(Nc1ccc(C[C@@H]2CC[C@H]([C@H](O)c3ccccc3)N2)cc1)c1ccc(-c2cocn2)cc1 [Example 241]	11 to 100
O=S(=O)(Nc1ccc(C[C@@H]2CC[C@H]([C@H](O)c3ccccc3)N2)cc1)c1cccc2ccncc12 [Example 236]	1000 to 3000

Continued, values first:

EC50 [nM]	Compound
101 to 1000	O=S(=O)(Nc1ccc(C[C@@H]2CC[C@H]([C@H](O)c3ccccc3)N2)cc1)c1cccc2cccnc12 [Example 237]
101 to 1000	O=S(=O)(Nc1ccc(C[C@@H]2CC[C@H]([C@H](O)c3ccccc3)N2)cc1)c1cccc2ccccc12 [Example 235]

Same assay, conditions: Table 8; read-out: Human β3 Functional

EC50 [nM]	Compound
11 to 100	CN(Cc1cscn1)C(=O)Nc1ccc(C[C@@H]2CC[C@H]([C@H](O)c3ccccc3)N2)cc1 [Example 253]

Same assay, conditions: Table 9; read-out: Human β^3 Functional

EC50 [nM]	Compound
1 to 10	CC(NC(=O)c1cnccn1)C(=O)Nc1ccc(C[C@@H]2CC[C@H]([C@H](O)c3ccccc3)N2)cc1 (some centres unmarked) [Example 269]
< 1	CC(NC(=O)c1c(F)cccc1F)C(=O)Nc1ccc(C[C@@H]2CC[C@H]([C@H](O)c3ccccc3)N2)cc1 (some centres unmarked) [Example 267]
11 to 100	CC(N)C(=O)Nc1ccc(C[C@@H]2CC[C@H]([C@H](O)c3ccccc3)N2)cc1 (some centres unmarked) [Example 270]

Same assay, conditions: Table 10; β3AR-cAMP; read-out: Human β3 Functional

EC50 [nM]	Compound
11 to 100	O=C(Nc1ccc(C[C@@H]2CC[C@H]([C@H](O)c3cccc(F)c3)N2)cc1)[C@H]1CCc2scnc21 [Example 278]

Same assay, conditions: Table 11; read-out: Human β3 Functional

Compound	EC50 [nM]
O=C(Cn1ncccc1=O)Nc1ccc(C[C@@H]2CC[C@H]([C@H](O)c3ccc(F)cc3)N2)cc1 [Example 287]	1 to 10
CC(C(=O)Nc1ccc(CC2CCC(C(O)c3ccc(F)cc3)N2)cc1)c1cscn1 (single isomer, unassigned) [Example 286]	< 1

The next lines start with the values.

EC50 [nM]	Compound
< 1	O=C(Nc1ccc(C[C@@H]2CC[C@H]([C@H](O)c3ccc(F)cc3)N2)cc1)[C@@H]1CCc2scnc21 [Example 284]
< 1	Nc1nc2c(s1)CCC2C(=O)Nc1ccc(CC2CCC(C(O)c3ccc(F)cc3)N2)cc1 (single isomer, unassigned) [Example 283]

Same assay, conditions: Table 12; read-out: Human β3 Functional

EC50 [nM]	Compound
< 1	Nc1nc2c(s1)CCC2C(=O)Nc1ccc(CC2CCC(C(O)c3ccc(F)c(F)c3)N2)cc1 (single isomer, unassigned) [Example 289]

Same assay, conditions: given as a range; cAMP, CHO cells; read-out: human β3 functional activity

EC50 [nM]	Compound
< 1	CC(C(=O)Nc1ccc(C[C@@H]2CC[C@H]([C@H](O)c3cccc(F)c3)N2)cc1)c1cscn1 (single isomer, unassigned) [Example 275]

Same assay, conditions: human β3 functional activity, shown as ranges; Table 13; read-out: Human β3 Functional

EC50 [nM]	Compound
11 to 100	O=C(Nc1ccc(CC2CCC(C(O)c3cccc(Cl)c3)N2)cc1)C1CCc2sc(Br)nc21 (single isomer, unassigned) [Example 299]
1 to 10	O=C(Nc1ccc(CC2CCC(C(O)c3cccc(Cl)c3)N2)cc1)C1CCc2sc(F)nc21 (single isomer, unassigned) [Example 300]
1 to 10	Nc1nc(CC(=O)Nc2ccc(C[C@@H]3CC[C@H]([C@H](O)c4cccc(Cl)c4)N3)cc2)cs1 [Example 304]
< 1	O=C(Nc1ccc(CC2CCC(C(O)c3cccc(Cl)c3)N2)cc1)C1CCc2sc(Br)nc21 (single isomer, unassigned) [Example 298]
